The results in this text go back to patent US20230192704A1, “MONOCARBOXYLIC ACID TRANSPORTER 4 (MCT4) MODULATORS AND USES THEREOF” (Teon Therapeutics, Inc., priority 2020, published 2023).

Where only a bound is given, the exact number is not on record here.

One test has as its target T1, MCT1 (Homo sapiens, UniProt P53985).
T1 construct: BT-20 cells—a triple negative human breast cancer cell line expressing exclusively MCT1 (confirmed by Western blotting); host or cells: BT-20
T1 sequence (P53985 1-500): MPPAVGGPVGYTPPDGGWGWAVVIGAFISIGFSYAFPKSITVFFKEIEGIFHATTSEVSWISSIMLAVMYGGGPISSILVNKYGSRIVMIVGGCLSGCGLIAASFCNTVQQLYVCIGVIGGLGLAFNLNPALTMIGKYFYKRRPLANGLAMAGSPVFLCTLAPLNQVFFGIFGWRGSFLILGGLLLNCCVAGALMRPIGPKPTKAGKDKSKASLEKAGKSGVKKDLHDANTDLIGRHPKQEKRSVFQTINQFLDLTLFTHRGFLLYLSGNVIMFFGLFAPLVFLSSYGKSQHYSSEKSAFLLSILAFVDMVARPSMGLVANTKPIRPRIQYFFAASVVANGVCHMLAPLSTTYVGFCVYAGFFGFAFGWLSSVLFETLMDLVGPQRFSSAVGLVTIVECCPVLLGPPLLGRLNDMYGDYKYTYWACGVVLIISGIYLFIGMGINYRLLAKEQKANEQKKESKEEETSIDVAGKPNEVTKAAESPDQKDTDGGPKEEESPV
T1 sequence (P35613 140-385 partner limits assumed): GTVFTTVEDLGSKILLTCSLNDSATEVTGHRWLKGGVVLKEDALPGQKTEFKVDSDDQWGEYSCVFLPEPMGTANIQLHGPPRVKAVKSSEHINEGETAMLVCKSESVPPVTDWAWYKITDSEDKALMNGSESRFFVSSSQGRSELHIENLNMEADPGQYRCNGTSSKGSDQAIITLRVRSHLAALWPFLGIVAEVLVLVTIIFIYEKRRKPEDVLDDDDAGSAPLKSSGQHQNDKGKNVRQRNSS
In words: MCT1 transport assay (L-lactate influx, BCECF-AM intracellular pH). In kind it is cell-based. The note with it: BT-20 cells expressing exclusively MCT1. From the text: The following in vitro MCT4 and MCT1 transport assays were used to measure the effect of the compounds on L-lactate influx into two different cell lines: • a) MDA-MB-231 cells—a triple negative human breast cancer cell line expressing exclusively MCT4 (confirmed by Western blotting) was used for the MCT4 transport assay, • b) BT-20 cells—a triple negative human breast cancer cell line expressing exclusively MCT1 (confirmed by Western blotting) was used for the
(§1) The compounds' efficacy in both assays was determined by calculating their IC50 value (the concentration of test compound that inhibited 50% of biological activity).
(§2) MCT4 is predominantly involved in cellular efflux of lactate from the cell, preventing intracellular acidification. In the MCT4 in vitro transport system described here it was possible to drive influx of lactate in the cells and test the compounds efficacy in preventing this process. MCT1 is involved in influx-efflux of lactate, and because it is closely related to MCT4, it is a major selectivity target for MCT4 inhibitor. The MCT1 in vitro transport system described here measured the influx of lactate in the cells and ability of test compounds in preventing this process.
BT-20 (ATCC); Media: EMEM+10% FBS+1% PS
(§3) Tyrode's Solution pH7.4 (NaCl 119 mM; KC1 5 mM; HEPES pH7.4 25 mM; CaCl2 2 mM; MgCl2 2 mM; Glucose 6 g/L)
(§4) The following assay was performed to assess MCT4 (MDA-MB-231 cell line) or MCT1 (BT-20 cell line) activity by monitoring the intracellular pH change that accompanies lactate/proton transport using the pH-sensitive fluorescent dye BCECF-AM.
(§5) Compound preparation: The compounds were serially diluted in 100% DMSO 1:3 for 8 pts and transferred (500 nl) to a 96-well plate by Echo.
(§6) Cell preparation: Cells were briefly rinsed with 10 ml of PBS solution to remove all traces of serum, trypsinized (0.05% Trypsin-EDTA) at 25° C. for 2-3 minutes and washed twice with Tyrode's solution. The cell viability and concentration were determined using Vi-Cell. Cells were resuspended in Tyrode's solution.
(§7) Cells were loaded with the pH sensitive dye BCECF-AM (5 uM final concentration from the 30 mM DMSO stock solution) at 37° C. for 30 minutes before being washed twice to remove excess dye and resuspended to 2 million/ml cells in Tyrode's solution. Cells were seeded into a 96-well plate (200,000 cells/well) directly onto the test compound or a reference compound for 10 minutes at 37° C. Following incubation with test compounds, 25 ul of 30 mM Sodium-L-lactate was added. This addition was performed on the FlexStation III as a part of a real-time kinetic protocol. The ratio of cellular fluorescence at 535 nm after excitation at 490 nm/440 nm was measured over time for baseline (pre-lactate addition) and post-lactate addition for 60 sec with or without compounds present. Inhibitory concentration response curves were generated for compounds and their IC50 values calculated.

Another test addresses T2, MCT4 (Homo sapiens, UniProt O15427).
T2 construct: MDA-MB-231 cells—a triple negative human breast cancer cell line expressing exclusively MCT4 (confirmed by Western blotting); host or cells: MDA-MB-231
T2 sequence (O15427 2-465 limits assumed): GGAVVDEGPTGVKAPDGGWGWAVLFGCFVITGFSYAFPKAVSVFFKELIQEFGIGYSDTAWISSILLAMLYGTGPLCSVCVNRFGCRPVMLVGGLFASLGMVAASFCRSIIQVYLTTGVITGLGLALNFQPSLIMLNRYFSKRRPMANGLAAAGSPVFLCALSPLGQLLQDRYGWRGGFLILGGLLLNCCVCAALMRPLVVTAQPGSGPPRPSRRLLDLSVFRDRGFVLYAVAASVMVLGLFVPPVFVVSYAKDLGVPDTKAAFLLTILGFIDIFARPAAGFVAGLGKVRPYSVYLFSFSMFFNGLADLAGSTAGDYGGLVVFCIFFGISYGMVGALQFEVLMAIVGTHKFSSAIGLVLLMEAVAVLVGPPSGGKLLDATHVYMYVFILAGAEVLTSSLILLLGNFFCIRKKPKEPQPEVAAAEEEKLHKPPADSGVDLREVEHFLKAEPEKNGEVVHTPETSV
In words: MCT4 transport assay (L-lactate influx, BCECF-AM intracellular pH). In kind it is cell-based. The note with it: MDA-MB-231 cells expressing exclusively MCT4. Here is the method: as §1, §2, §3, §4, §5, §6, §7

As usually defined, the IC50 is the midpoint of a concentration-inhibition curve. Turning to `Cc1nc2nc(C)c(O[C@@H]3CCN(c4ccc(-c5ccc(C(=O)N6CC(S(C)(=O)=O)C6)nn5)cc4)C3)c(C)n2n1` [Compound 16, (R)-(3-(methylsulfonyl)azetidin-1-yl)(6-(4-(3-((2,5,7-trimethyl-[1,2,4]triazolo[1,5-a]pyrimidin-6-yl)oxy)pyrrolidin-1-yl)phenyl)pyridazin-3-yl)methanone], the IC50 is greater than 1 µM on MCT1 and less than 0.1 µM against MCT4.
Turning to `Cc1nc2nc(C)c(O[C@@H]3CCN(c4ccc(-c5ccc(C(=O)N6CC(C(N)=O)C6)nn5)cc4)C3)c(C)n2n1` [Compound 17, (R)-1-(6-(4-(3-((2,5,7-trimethyl-[1,2,4]triazolo[1,5-a]pyrimidin-6-yl)oxy)pyrrolidin-1-yl)phenyl)pyridazine-3-carbonyl)azetidine-3-carboxamide], the figures for the IC50 against MCT1 and on MCT4 were greater than 1 µM and 0.5 to 1 µM, respectively.
The matching figures for `Cc1nc2nc(C)c(O[C@@H]3CCN(c4ccc(-c5ccc(C(=O)N6CC(C(=O)N(C)C)C6)nn5)cc4)C3)c(C)n2n1` [Compound 18, (R)-N,N-dimethyl-1-(6-(4-(3-((2,5,7-trimethyl-[1,2,4]triazolo[1,5-a]pyrimidin-6-yl)oxy)pyrrolidin-1-yl)phenyl)pyridazine-3-carbonyl)azetidine-3-carboxamide]: greater than 1 µM and less than 0.1 µM.
On the same counts, the results for `Cc1nc2nc(C)c(O[C@@H]3CCN(c4ccc(-c5ccc(C(=O)N6CCOCC6)nn5)cc4)C3)c(C)n2n1` [Compound 19, (R)-morpholino(6-(4-(3-((2,5,7-trimethyl-[1,2,4]triazolo[1,5-a]pyrimidin-6-yl)oxy)pyrrolidin-1-yl)phenyl)pyridazin-3-yl)methanone] are greater than 1 µM and less than 0.1 µM.
As to `Cc1cc2nc(C)c(O[C@@H]3CCN(c4ccc(-c5ccc(C(=O)N6CCOCC6)nn5)cc4)C3)c(C)n2n1` [Compound 20, (R)-morpholino(6-(4-(3-((2,5,7-trimethylpyrazolo[1,5-a]pyrimidin-6-yl)oxy)pyrrolidin-1-yl)phenyl)pyridazin-3-yl)methanone], the IC50 against MCT1 is greater than 1 µM; against MCT4, less than 0.1 µM.
As for `Cc1nc2nc(C)c(O[C@@H]3CCN(c4cnc(C56CC(CN7CC8(COC8)C7)(C5)C6)nc4)C3)c(C)n2n1` [Compound 21, (R)-6-((3-(5-(3-((2,5,7-trimethyl-[1,2,4]triazolo[1,5-a]pyrimidin-6-yl)oxy)pyrrolidin-1-yl)pyrimidin-2-yl)bicyclo[1.1.1]pentan-1-yl)methyl)-2-oxa-6-azaspiro[3.3]heptane], the values for the IC50 against MCT1 and against MCT4 were greater than 1 µM and 0.5 to 1 µM, respectively.
As to `COC1CN(CC23CC(c4ncc(N5CC[C@@H](Oc6c(C)nc7nc(C)nn7c6C)C5)cn4)(C2)C3)C1` [Compound 22, (R)-6-((1-(2-(3-((3-methoxyazetidin-1-yl)methyl)bicyclo[1.1.1]pentan-1-yl)pyrimidin-5-yl)pyrrolidin-3-yl)oxy)-2,5,7-trimethyl-[1,2,4]triazolo[1,5-a]pyrimidine], the IC50 at MCT1 is greater than 1 µM; against MCT4, less than 0.1 µM.
The matching figures for `Cc1nc2nc(C)c(O[C@@H]3CCN(c4cnc(C56CC(CN7CCOCC7)(C5)C6)nc4)C3)c(C)n2n1` [Compound 23, (R)-4-((3-(5-(3-((2,5,7-trimethyl-[1,2,4]triazolo[1,5-a]pyrimidin-6-yl)oxy)pyrrolidin-1-yl)pyrimidin-2-yl)bicyclo[1.1.1]pentan-1-yl)methyl)morpholine]: greater than 1 µM and less than 0.1 µM.
In the case of `Cc1nc2nc(C)c(O[C@@H]3CCN(c4cnc(C56CC(C(=O)N7CC8(COC8)C7)(C5)C6)nc4)C3)c(C)n2n1` [Compound 24, (R)-(2-oxa-6-azaspiro[3.3]heptan-6-yl)(3-(5-(3-((2,5,7-trimethyl-[1,2,4]triazolo[1,5-a]pyrimidin-6-yl)oxy)pyrrolidin-1-yl)pyrimidin-2-yl)bicyclo[1.1.1]pentan-1-yl)methanone], the IC50 at MCT1 and at MCT4 was greater than 1 µM in each case.
For the compound `COC1CN(C(=O)C23CC(c4ncc(N5CC[C@@H](Oc6c(C)nc7nc(C)nn7c6C)C5)cn4)(C2)C3)C1` [Compound 25, (R)-(3-methoxyazetidin-1-yl)(3-(5-(3-((2,5,7-trimethyl-[1,2,4]triazolo[1,5-a]pyrimidin-6-yl)oxy)pyrrolidin-1-yl)pyrimidin-2-yl)bicyclo[1.1.1]pentan-1-yl)methanone], the IC50 is greater than 1 µM against MCT1 and 0.5 to 1 µM against MCT4.
On the same counts, the results for `Cc1nc2nc(C)c(O[C@@H]3CCN(c4cnc(C56CC(C(=O)N7CCOCC7)(C5)C6)nc4)C3)c(C)n2n1` [Compound 26, (R)-morpholino(3-(5-(3-((2,5,7-trimethyl-[1,2,4]triazolo[1,5-a]pyrimidin-6-yl)oxy)pyrrolidin-1-yl)pyrimidin-2-yl)bicyclo[1.1.1]pentan-1-yl)methanone] are greater than 1 µM and 0.1 to 0.499 µM.
On the same counts, the results for `Cc1nc2nc(C)c(O[C@@H]3CCN(c4ccc([C@H]5CC[C@H](C(=O)N6CC7(COC7)C6)CC5)cc4)C3)c(C)n2n1` [Compound 33, (2-oxa-6-azaspiro[3.3]heptan-6-yl)((1R,4r)-4-(4-((R)-3-((2,5,7-trimethyl-[1,2,4]triazolo[1,5-a]pyrimidin-6-yl)oxy)pyrrolidin-1-yl)phenyl)cyclohexyl)methanone] are greater than 1 µM and less than 0.1 µM.
On the same counts, the results for `COC1CN(C(=O)[C@H]2CC[C@H](c3ccc(N4CC[C@@H](Oc5c(C)nc6nc(C)nn6c5C)C4)cc3)CC2)C1` [Compound 34, (3-methoxyazetidin-1-yl)((1R,4r)-4-(4-((R)-3-((2,5,7-trimethyl-[1,2,4]triazolo[1,5-a]pyrimidin-6-yl)oxy)pyrrolidin-1-yl)phenyl)cyclohexyl)methanone] are greater than 1 µM and less than 0.1 µM.
For the compound `Cc1nc2nc(C)c(O[C@@H]3CCN(c4ccc([C@H]5CC[C@H](C(=O)N6CCOCC6)CC5)cc4)C3)c(C)n2n1` [Compound 35, morpholino((1R,4r)-4-(4-((R)-3-((2,5,7-trimethyl-[1,2,4]triazolo[1,5-a]pyrimidin-6-yl)oxy)pyrrolidin-1-yl)phenyl)cyclohexyl)methanone], the IC50 against MCT1 is greater than 1 µM; against MCT4, less than 0.1 µM.
